This is an account of results in patent US12679878B2, “CRF2 receptor agonists and their use in therapy” (SANOFI, priority 2020, dated 2026).

A short description of data set [1]: Physical stability, dynamic light scattering assay (Example 15). Format: physicochemical. Particulars: Buffer A (100 mM acetate, pH 4.5); for Apparent Rh [nm] 4 weeks / Scattering Intensity (I) [%] 4 weeks: 4 weeks at 40° C. The protocol:
The physical stability of the compounds was also assessed using a dynamic light scattering assay.
In the present study, the physical stability of test compounds was assessed by determining the apparent hydrodynamic radius (Rh), the scattering intensity (I) and mass contribution (M) after synthesis (0 weeks) and after storage for 4 weeks at 40° C.
For each solution of test compound, the hydrodynamic radius Rh and the diffusion constant D (related via the Stokes-Einstein equation) were determined as an average over triplicates. Both parameters were determined at different compound concentrations (e.g., Rh1 and D1: 1 mg/ml and Rh5 and D5: 5 mg/ml, Rh10 and D10: 10 mg/mL) in the same buffer system. The difference of these parameters between low and high peptide concentration is a surrogate for the DLS interaction parameter kD. […] In addition, the hydrodynamic radius Rh and the corresponding Scattering Intensity (%) were determined as an average over duplicates. The target concentration was 300 μM. Therefore, solutions from solid samples were prepared in a buffer system with a concentration of 300 μM compound based on the previously determined % purity.
DLS measurements were performed on a DynaPro Plate Reader I (Wyatt Technology, Santa Barbara, CA, US) with an 837 nm laser light source at a scattering angle of 150°. The data were collected and processed with Dynamics V 7.8.1.3 or 7.8.2.18 software provided by Wyatt Technology.
Hydrodynamic radii were determined with non-negatively constrained least squares (NNLS) methods using DYNALS algorithms with regularization fit. […] Samples were tempered over 1 hour at +25° C. and visually inspected before analysis.
Samples were mixed with the aid of a pipet tip. Measurements were performed in 5 replicates. […] The plate was centrifuged for 2 minutes at 600 rcf. After removing the sealing, the samples were measured at +25° C.

For the next data set, the target named is T1, human CRF2α receptor (Homo sapiens, UniProt Q13324).
T1 construct: expressed in transfected cells; host or cells: TeloHEAC
T1 sequence (Q13324 1-411): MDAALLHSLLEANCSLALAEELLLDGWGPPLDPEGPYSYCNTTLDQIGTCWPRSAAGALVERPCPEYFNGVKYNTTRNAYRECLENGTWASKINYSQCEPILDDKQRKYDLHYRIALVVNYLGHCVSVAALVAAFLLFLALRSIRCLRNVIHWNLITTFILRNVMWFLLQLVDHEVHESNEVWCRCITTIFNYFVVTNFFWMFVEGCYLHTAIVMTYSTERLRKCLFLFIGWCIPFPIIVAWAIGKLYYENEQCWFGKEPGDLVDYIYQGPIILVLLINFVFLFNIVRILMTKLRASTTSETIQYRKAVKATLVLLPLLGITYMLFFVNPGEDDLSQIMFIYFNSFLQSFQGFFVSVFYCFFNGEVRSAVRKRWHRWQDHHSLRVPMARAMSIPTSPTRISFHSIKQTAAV
Kind of data set: cAMP agonism at human CRF2 α receptor in TeloHEAC cells (Example 7). It counts as cell-based. Particulars: cAMP HTRF, TeloHEAC cells stably expressing human CRF2 α. In outline:
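Thawed frozen stably transfected cells in HBSS/20 mM HEPES (0% or 0.1% HSA) plus 2 mM IBMX were exposed to compound at 2000 cells/well for 30 min at room temperature. Intracellular cAMP was read by HTRF (665/620 nm ratio) after 1 h lysis; EC50 was derived with 1000 nM urocortin 2 set as 100%.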

Another data set concerns rat CRF2R α receptor. Kind of data set: cAMP agonism at rat CRF2R α receptor in A7R5 rat aortic smooth muscle cells (Example 8). The settings on record: cAMP HTRF, A7R5 rat aortic smooth muscle cell line, 0% HSA. It counts as cell-based. In outline: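 Potency (EC50) is the concentration reaching half-maximal activation, with responses scaled so that 1000 nM urocortin 2 equals 100%. Intracellular cAMP was quantified by homogeneous time-resolved fluorescence at 665/620 nm, 1 h after lysis-buffer reagents. Compound stimulation lasted 30 min at room temperature on 2000 IBMX-treated (2 mM) cells per well in HEPES-buffered HBSS.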
(In general: TR-FRET usually uses a lanthanide donor and a delayed reading to cut background.)

Data set [2] is described as follows: Chemical stability, purity loss by UPLC-UV after 28 days at 40° C. vs 5° C., pH 4.5 acetate buffer (Example 12). It counts as physicochemical. Particulars: 28 days 40° C. vs 5° C.; pH 4.5, 20 mM acetate buffer; 300 μM. The protocol:
The chemical stability of the compounds was assessed by storing the compounds under various conditions and then determining the loss of purity by UPLC-UV.
Prior to measuring the chemical stability of a batch of test compound, the purity of the compound was determined through UPLC/MS. For stability testing the target concentration was 300 μM pure compound. Therefore, solutions from solid samples were prepared in a pH 4.5, 20 mM acetate buffer system with a concentration of 300 μM compound based on the previously determined % purity:
At the starting point, UPLC-UV was performed by injection of 2 μl of the undiluted sample. Aliquots were then stored for 28 days at temperatures of 5 and 40° C. […] Then 2 μl samples of the undiluted supernatant were analysed with UPLC-UV. The chemical stability was calculated by the equation: [(purity after 28 days at 5° C.)−(purity after 28 days at 40° C.)]/(purity after 28 days at 5° C.)]×100%. The purity was calculated as: [(peak area compound)/(total peak area)]×100%.

The nature of data set [3]: Solubility in buffer systems by UPLC-UV (Example 13). It counts as physicochemical. In outline: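 Quantitation used UV peak area from UPLC of the 1:10-diluted supernatant, set against a reference-compound standard curve with extinction coefficients adjusted for amino acid sequence.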
For a further data set, the target named is T2, CRF1R receptor (Homo sapiens, UniProt P34998).
T2 construct: host or cells: CHO-K1 clone 2
T2 sequence (P34998 24-415): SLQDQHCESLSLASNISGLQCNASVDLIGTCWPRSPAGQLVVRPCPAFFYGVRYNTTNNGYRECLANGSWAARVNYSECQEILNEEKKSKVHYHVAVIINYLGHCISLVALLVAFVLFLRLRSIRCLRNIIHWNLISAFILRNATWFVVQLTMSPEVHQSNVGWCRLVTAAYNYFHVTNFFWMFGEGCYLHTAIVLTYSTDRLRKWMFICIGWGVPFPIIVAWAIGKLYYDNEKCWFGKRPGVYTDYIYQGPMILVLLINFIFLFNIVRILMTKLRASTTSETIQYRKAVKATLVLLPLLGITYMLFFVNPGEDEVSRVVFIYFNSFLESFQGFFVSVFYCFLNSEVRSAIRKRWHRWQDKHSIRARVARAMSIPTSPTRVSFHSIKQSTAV
Description: cAMP activity at anti-target CRF1R, CRF1R-overexpression CHO cell line (Example 9). It counts as cell-based. The settings on record: CRF1R-overexpression CHO cell line. The method, boiled down:
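Using thawed CRF1R-overexpressing CHO cells at 2000 per well, compound is applied for 30 min at RT in HBSS/HEPES buffer with IBMX. Cellular cAMP content is determined via HTRF, and percent activity is calculated against 1000 nM UCN2 defined as 100%.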

Where [4] appears, read: 0% HSA, read-out: EC50 [nM], 0% HSA.
Where [5] appears, read: pH 7.4, Solubility in Buffer C [mg/ml].

Values after ≈ are worked out from the molar mass of the structure shown. Where two headings read alike, the source gives them in different places. Starred links: 1 amine or outer side, 2 acyl side, 3 side chain; linkers in the order of their positions; H or OH if unused. Non-standard residues stand in square brackets, D forms with d. Residues, ends and D or L forms follow the SMILES beside them. Groups on a side chain read outwards from the residue. *: point of attachment. C18 diacid = O=C(O)CCCCCCCCCCCCCCCCC(=O)*; γGlu = O=C(O)[C@H](CCC(=O)[*:2])N[*:1]; AEEA = NCCOCCOCC(=O)O; Aib = CC(C)(N)C(=O)O Some results are limits rather than exact numbers.

Regarding `CC[C@H](C)[C@H](N)C(=O)N[C@H](C(=O)N[C@@H](CC(C)C)C(=O)N[C@@H](CO)C(=O)N[C@@H](CC(C)C)C(=O)N[C@@H](CC(=O)O)C(=O)N[C@@H](C(=O)N1CCC[C@H]1C(=O)N[C@H](C(=O)N[C@@H](CCCCN)C(=O)N[C@@H](CC(C)C)C(=O)N[C@@H](CCCCNC(=O)COCCOCCNC(=O)COCCOCCNC(=O)CC[C@H](NC(=O)CCCCCCCCCCCCCCCCC(=O)O)C(=O)O)C(=O)N[C@@H](CCC(N)=O)C(=O)N[C@@H](CCCCN)C(=O)N[C@@H](CC(C)C)C(=O)N[C@@H](CC(C)C)C(=O)N[C@@H](CCCCN)C(=O)N[C@@H](CCC(N)=O)C(=O)N[C@@H](CCC(=O)O)C(=O)N[C@@H](CCCNC(=N)N)C(=O)N[C@@H](CCC(N)=O)C(=O)N[C@@H](CCCNC(=N)N)C(=O)N[C@@H](CCCCN)C(=O)NC(C)(C)C(=O)N[C@@H](CCCNC(=N)N)C(=O)N[C@@H](CCC(=O)O)C(=O)N[C@@H](CCC(N)=O)C(=O)N[C@@H](C)C(=O)N[C@@H](CCC(=O)O)C(=O)N[C@@H](CCCCN)C(=O)N[C@@H](CC(N)=O)C(=O)N[C@@H](CCCCN)C(=O)N[C@@H](CCCNC(=N)N)C(=O)N[C@H](C(=O)N[C@@H](CC(C)C)C(=O)N[C@@H](CCC(=O)O)C(=O)N[C@@H](CCCNC(=N)N)C(=O)N[C@H](C(N)=O)C(C)C)[C@@H](C)CC)[C@@H](C)O)C(C)C)C(C)C` [compound 36] (H-IVLSLD[dV]PTKLK([AEEA-AEEA-γGlu-C18 diacid])QKLLKQERQRK[Aib]REQAEKNKRILERV-NH2; N-terminus assumed), in data set [1], the “Apparent Rh [nm] 0 weeks” value stood at 1.42 ± 0.08 nm, the “Scattering Intensity (I) [%] 0 weeks” value came to 88 ± 8%, the “Apparent Rh [nm] 4 weeks” value is given as 1.48 ± 0.11 nm and the “Scattering Intensity (I) [%] 4 weeks” value is on record as 98 ± 2%. Also, the EC50 (commonly the concentration at which the effect is half-maximal) at human CRF2α receptor (setting [4]) came out at 1.45 nM. Moreover, in the data set with rat CRF2R α receptor, the response was half-maximal at 13.3 nM (EC50). For the same compound, the “Relative purity loss [%]” value in data set [2] came out at 3.65%. The solubility – broadly, how much of the substance goes into solution per volume – at 1 h in data set [3] (setting [5]) was more than 9700 µg/mL.
As for `CC[C@H](C)[C@H](N)C(=O)N[C@H](C(=O)N[C@@H](CC(C)C)C(=O)N[C@@H](CO)C(=O)N[C@@H](CC(C)C)C(=O)N[C@@H](CC(=O)O)C(=O)N[C@@H](C(=O)N1CCC[C@H]1C(=O)N[C@H](C(=O)N[C@@H](CCCCN)C(=O)N[C@@H](CC(C)C)C(=O)N[C@@H](CCCCNC(=O)COCCOCCNC(=O)COCCOCCNC(=O)CC[C@H](NC(=O)CCCCCCCCCCCCCCCCC(=O)O)C(=O)O)C(=O)N[C@@H](CCC(N)=O)C(=O)N[C@H](C(=O)N[C@@H](CC(C)C)C(=O)N[C@@H](CC(C)C)C(=O)N[C@@H](CCCCN)C(=O)N[C@@H](CCC(N)=O)C(=O)N[C@@H](CCC(=O)O)C(=O)N[C@@H](CCCNC(=N)N)C(=O)N[C@@H](CCC(N)=O)C(=O)N[C@@H](CCCCN)C(=O)N[C@@H](CCCCN)C(=O)N[C@@H](CCC(N)=O)C(=O)N[C@@H](CCCNC(=N)N)C(=O)N[C@@H](CCC(=O)O)C(=O)N[C@@H](CCCCN)C(=O)N[C@@H](C)C(=O)N[C@@H](CCC(=O)O)C(=O)N[C@@H](CCCCN)C(=O)N[C@@H](CC(N)=O)C(=O)N[C@@H](CCCCN)C(=O)N[C@@H](CCC(N)=O)C(=O)N[C@H](C(=O)N[C@@H](CC(C)C)C(=O)N[C@@H](C)C(=O)N[C@@H](CCC(N)=O)C(=O)N[C@H](C(N)=O)C(C)C)[C@@H](C)CC)[C@@H](C)CC)[C@@H](C)CC)C(C)C)C(C)C` [compound 138] (H-IVLSLD[dV]PIKLK([AEEA-AEEA-γGlu-C18 diacid])QILLKQERQKKQREKAEKNKQILAQV-NH2; N-terminus assumed), the “Apparent Rh [nm] 0 weeks” value in data set [1] was determined as 2.75 ± 0.19 nm. Further, the “Scattering Intensity (I) [%] 0 weeks” value in data set [1] is listed as 86 ± 4%. Moreover, in data set [1], the “Apparent Rh [nm] 4 weeks” value turned out to be 2.82 ± 0.11 nm. Besides, in data set [1], the “Scattering Intensity (I) [%] 4 weeks” value is 84 ± 1%. For the same compound, the concentration for a half-maximal effect (EC50) at human CRF2α receptor (setting [4]) is 0.06 nM; on human CRF2α receptor (0.1% HSA, read-out: EC50 [nM], 0.1% HSA), 3.12 nM; with rat CRF2R α receptor, 0.26 nM; at CRF1R receptor (0% HSA), more than 1000 nM. The Emax (commonly the size of the effect at its maximum, as opposed to the concentration needed) on CRF1R receptor (read-out: Emax (%)) turned out to be 4.38%. For the same compound, the “Relative purity loss [%]” value in data set [2] is recorded as 2.85%. Further, the solubility at 1 h was more than 8600 µg/mL in data set [3] (pH 4.5, Solubility in Buffer A [mg/ml]); more than 8700 µg/mL in data set [3] (pH 4.5, Solubility in Buffer B [mg/ml]); 8200 µg/mL (≈ 1570 µM) in data set [3] (setting [5]).
